Reference: patent US7704995B2 (Exelixis, Inc., priority 2003, dated 2010)

Target: T1, Chk1 (Homo sapiens, UniProt O14757)
T1 construct: purchased Upstate Biotechnology
T1 sequence (O14757 1-476): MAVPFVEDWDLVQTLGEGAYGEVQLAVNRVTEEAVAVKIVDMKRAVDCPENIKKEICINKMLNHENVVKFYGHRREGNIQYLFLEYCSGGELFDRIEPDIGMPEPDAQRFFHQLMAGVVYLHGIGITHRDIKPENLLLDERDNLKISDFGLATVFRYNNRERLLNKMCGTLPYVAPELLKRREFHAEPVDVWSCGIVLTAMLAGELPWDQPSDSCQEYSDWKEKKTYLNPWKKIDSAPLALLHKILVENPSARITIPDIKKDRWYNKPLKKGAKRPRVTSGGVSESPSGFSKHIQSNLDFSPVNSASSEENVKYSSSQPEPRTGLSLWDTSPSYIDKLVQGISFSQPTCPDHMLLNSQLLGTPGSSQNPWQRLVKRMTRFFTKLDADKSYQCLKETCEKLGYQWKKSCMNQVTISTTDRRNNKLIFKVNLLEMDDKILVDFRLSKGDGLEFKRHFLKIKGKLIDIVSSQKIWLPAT
Experiment: Chk1 kinase assay: incorporation of γ-33P ATP into immobilized myelin basic protein
Type: biochemical
Conditions: read-out: Chk1 IC50
In short: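 Immobilized-MBP radiometric kinase assay, room temperature for 1 h; ATP 10 μM (Chk1, 10 nM enzyme) or 30 μM (Chk2, 20 nM enzyme) with 33P tracer. Values are IC50s, with Ki derived from them.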

IC50 | Compound
50 to 1000 nM | CNC(=O)c1nc(-c2cccc(C(=O)NCc3c(Cl)cc(Cl)cc3Cl)c2)cnc1N [Example 292, 3-amino-N-methyl-6-[3-({[(2,4,6-trichlorophenyl)methyl]amino}carbonyl)phenyl]pyrazine-2-carboxamide]
50 to 1000 nM | CNC(=O)c1nc(-c2cccc(C(=O)NCc3cccc(Cl)c3C)c2)cnc1N [Example 293, 3-amino-6-[3-({[(3-chloro-2-methylphenyl)methyl]amino}carbonyl)phenyl]-N-methylpyrazine-2-carboxamide]
50 to 1000 nM | CNC(=O)c1nc(-c2cccc(C(=O)NCc3cc(OC)ccc3OC)c2)cnc1N [Example 294, 3-amino-6-{3-[({[2,5-bis(methyloxy)phenyl]methyl}amino)carbonyl]phenyl}-N-methylpyrazine-2-carboxamide]
50 to 1000 nM | CNC(=O)c1nc(-c2cccc(C(=O)NCc3ccc(C)c(F)c3)c2)cnc1N [Example 295, 3-amino-6-[3-({[(3-fluoro-4-methylphenyl)methyl]amino}carbonyl)phenyl]-N-methylpyrazine-2-carboxamide]
50 to 1000 nM | CNC(=O)c1nc(-c2cccc(C(=O)NCc3c(F)ccc(C)c3Cl)c2)cnc1N [Example 296, 3-amino-6-[3-({[(2-chloro-6-fluoro-3-methylphenyl)methyl]amino}carbonyl)phenyl]-N-methylpyrazine-2-carboxamide]
50 to 1000 nM | CNC(=O)c1nc(-c2cccc(C(=O)NCc3c(F)ccc(F)c3Cl)c2)cnc1N [Example 297, 3-amino-6-[3-({[(2-chloro-3,6-difluorophenyl)methyl]amino}carbonyl)phenyl]-N-methylpyrazine-2-carboxamide]
50 to 1000 nM | CNC(=O)c1nc(-c2cccc(C(=O)NCc3ccc(C)c(F)c3F)c2)cnc1N [Example 298, 3-amino-6-[3-({[(2,3-difluoro-4-methylphenyl)methyl]amino}carbonyl)phenyl]-N-methylpyrazine-2-carboxamide]
50 to 1000 nM | CNC(=O)c1nc(-c2cccc(C(=O)NCc3ccc(F)c(C)c3)c2)cnc1N [Example 299, 3-amino-6-[3-({[(4-fluoro-3-methylphenyl)methyl]amino}carbonyl)phenyl]-N-methylpyrazine-2-carboxamide]
50 to 1000 nM | CNC(=O)c1nc(-c2cccc(C(=O)NCc3cccc(Cl)c3F)c2)cnc1N [Example 300, 3-amino-6-[3-({[(3-chloro-2-fluorophenyl)methyl]amino}carbonyl)phenyl]-N-methylpyrazine-2-carboxamide]
50 to 1000 nM | CNC(=O)c1nc(-c2cccc(C(=O)NCc3c(Cl)ccc(C)c3F)c2)cnc1N [Example 301, 3-amino-6-[3-({[(6-chloro-2-fluoro-3-methylphenyl)methyl]amino}carbonyl)phenyl]-N-methylpyrazine-2-carboxamide]
< 50 nM | CNC(=O)c1nc(-c2cccc(C(=O)NCc3ccc(I)cc3)c2)cnc1N [Example 302, 3-amino-6-[3-({[(4-iodophenyl)methyl]amino}carbonyl)phenyl]-N-methylpyrazine-2-carboxamide]
50 to 1000 nM | CNC(=O)c1nc(-c2cccc(C(=O)NCc3ccc(C)c(Cl)c3)c2)cnc1N [Example 303, 3-amino-6-[3-({[(3-chloro-4-methylphenyl)methyl]amino}carbonyl)phenyl]-N-methylpyrazine-2-carboxamide]
50 to 1000 nM | CNC(=O)c1nc(-c2cccc(C(=O)NCc3ccc(Br)cc3)c2)cnc1N [Example 304, 3-amino-6-[3-({[(4-bromophenyl)methyl]amino}carbonyl)phenyl]-N-methylpyrazine-2-carboxamide]
50 to 1000 nM | CNC(=O)c1nc(-c2cccc(C(=O)NCc3ccccc3Br)c2)cnc1N [Example 305, 3-amino-6-[3-({[(2-bromophenyl)methyl]amino}carbonyl)phenyl]-N-methylpyrazine-2-carboxamide]
50 to 1000 nM | CNC(=O)c1nc(-c2cccc(CNC(=O)c3ccccc3)c2)cnc1N [Example 308, 3-amino-N-methyl-6-(3-{[(phenylcarbonyl)amino]methyl}phenyl)pyrazine-2-carboxamide]
